Measured values taken from patent publication US20240358705A1, “COMPOSITIONS AND METHODS FOR TREATMENT OF CANCER” (Board of Supervisors of Louisiana State University and …, priority 2021, published 2024).
Entries after “also recorded” stand apart in the source; their conditions may differ. {AltR1} = IDT Alt-R proprietary 5' end modification; {AltR2} = IDT Alt-R proprietary 3' end modification

Assays:
[1] = model of diet-induced obesity; cited from earlier work
CD8 OT-I T cells = assay: In vivo vaccination antigen titration; design: species or system mouse; OT-I proliferation response, lymph node: dose or concentration left out as unconfirmed
Procedure: C57BL/6N mice were first administered 200 μg cyclophosphamide dissolved in PBS by intraperitoneal injection to induce minor lymphodepletion. 48 hours after lymphodepletion, mice were intravenously adoptively transferred 2×10^6 CFSE labeled CD8 OT-I T cells. Five hours later, mice were vaccinated by 100 μl subcutaneous injection with reducing doses of […] (SEQ ID NO: 1) (Bachem #4033142.0001) in incomplete Freund's adjuvant (IFA) (Thermo #77145). Study ended 96 hours post-vaccination and lymph node tissue was isolated for analysis. Single-cell suspensions of lymph node were stained following the immune profiling by flow cytometry method. Vaccine effectiveness was determined by the percent proliferation of adoptively transferred cells. The sub-optimal vaccine dose was then selected as the amount of antigen that elicited a 50% response.

pmel-I CD8 T cells = assay: Cytotoxicity of CRISPR-Cas9 GPR84 knockout pmel-I CD8 T cells; format: cell-based, mouse
Procedure: CRISPR-Cas9 GPR84 pmel-I T cells were prepared following the CRISPR-Cas9 method. Non-target EL4 cells (CFSE low—0.1 μM) and target EL4gp100 cells (CFSE high—[…]) were prepared. EL4gp100 CFSE high cells were prepared by pulsing EL4 with […] gp100 (Anaspec #AS62589) and incubating for 30 minutes at 37° C., 5% C02. Cells were subsequently washed, pelleted, resuspended at 1×10^6 cells/ml, and mixed at 1:1 ratio. 1×10^5 of the mixed cells were plated into a 96-well round-bottom plate. In technical duplicate or triplicate GPR84 knockout or no target control CD8 […] T cells were added to wells to create an effector to target ratio of 0.5:1, 0.25:1, and 0.12:1 and incubated for 24 hours at 37° C., 5% C02. Cells were then harvested, stained with anti-CD8 to remove the T cell population and the percent specific lysis was captured by flow cytometry.
Isolated pmel-I splenocytes were plated at a density of 2.5×10^6 in 1 ml of cRPMI-1640 containing 300 ng/ml anti-mouse CD3 (Biolegend #100340, clone 145-2C11), 500 IU/ml IL-2, 5 ng/ml IL-7 (PreproTech #217-17), and 100 ng/ml IL-15 (PreproTech #210-15) into a 24-well plate. Cells were incubated at 37° C., 5% CO2 for 48 hours. Cells were then pelleted and suspended to a concentration of 4×10^5 cells/ml in fresh cRPMI-1640 with 500 IU/ml IL-2 and cultured for an additional 24 hours at 37° C., 5% CO2. Before electroporation, T media was prepared consisting of modified cRPMI-1640 (20% FBS, 500 IU/ml IL-2, and no antibiotics). 615 μl of fresh T media was pipetted into 24-well plates. Preparation of CRISPR-Cas9 complexes and electroporation of primary T cells were conducted following the Alt-R CRISPR-Cas9 system using the Neon Transfection System instructions provided by Integrated DNA Technologies (IDT Coralville, IO). The program used for electroporation consisted of 1600V, 10 ms, and three pulses. […] Cells were counted 48 hours after electroporation and cRPMI-1640 supplemented with 500 IU/ml IL-2 was added to adjust the cell density to 4×10^5 cells/ml. […]

[2] = test system: human polymorphonuclear leukocytes and macrophages; conditions: cited from earlier work
[3] = cited from earlier work
[4] = phase II study; cited from earlier work
[5] = test system: macrophages, fibroblasts, myofibroblasts, and epithelial cells; conditions: cited from earlier work

CCCCCc1cc(CCCCC)cc(CC(=O)O)c1 [PBI-4547]
metabolic dysregulation (hyperglycemia and hypertriglyceridemia) [1]: improved metabolic dysregulation

SIINFEKL
OT-I proliferation response, predicted (CD8 OT-I T cells; 0.07 g SIINFEKL, selected sub-optimal vaccine dose): 50% | OT-I proliferation, lymph node (CD8 OT-I T cells; first five concentrations of SIINFEKL in IFA, 96 hours): ~100% | OT-I proliferation response, lymph node (CD8 OT-I T cells; in IFA): below 50%

crGPR84: CRISPR-Cas9 guide RNA (SEQ ID NO: 2) used to knock out GPR84 in pmel-I CD8 T cells (guide CUCGAGCACUGGACCAAUACGUUUUAGAGCUAUGCU; RNA, 5' {AltR1}, 3' {AltR2}, backbone not given here)
specific lysis of gp100 pulsed EL4 target cells (pmel-I CD8 T cells; 0.12:1 effector to target ratio, crNTC 38.6%): 52.3% | specific lysis of gp100 pulsed EL4 target cells (pmel-I CD8 T cells; 0.25:1 effector to target ratio, no target control 55.9%): 72.5% | cytotoxicity vs no target control (pmel-I CD8 T cells; 0.5:1 effector to target ratio): did not find a significant difference

CCCCCCCCNc1cc(=O)[nH]c(=O)[nH]1 [6-OAU]
chemotaxis [2]: increase chemotaxis

CCCCCc1cccc(CC(=O)O)c1 [PBI-4050]
forced vital capacity ([3]; combination therapy with pirfenidone): worsened forced vital capacity | inflammatory and fibrotic biomarkers ([3]; patients treated with PBI-4050): significant increase in IL-9, IL-7, MIP-Ibeta; also recorded: increase in IL-9, IL-7, MIP-1beta | tolerability ([3]; single agent and in combination with nintedanib or pirfenidone, phase II): well tolerated | ability to increase forced vital capacity ([3]; single agent and in combination with nintedanib): unsuccessful | HbA1c [4]: can reduce HbAlc | fibrotic capacity of cells [5]: reduced fibrotic capacity | glycemic control [5]: improved glycemic control
